Read-outs that look alike come from different tables or passages of the source.
Key:
Mag-lipase = biological target: T1, Mag-lipase (Rattus norvegicus, UniProt Q8R431); test: Inhibition of MAG-lipase: 2-AG metabolism to arachidonic acid; assay type: biochemical; conditions: 20 min, 30 nmoles compound with 30 nmoles 2-AG, 30 μg enzyme, 300 μL
T1 construct: supernatant from final spin in the anandamide amidase preparation; from tissue; host or cells: supernatant (soluble fraction) of the anandamide amidase preparation, rat brain by the cited procedure
T1 sequence (Q8R431 1-303): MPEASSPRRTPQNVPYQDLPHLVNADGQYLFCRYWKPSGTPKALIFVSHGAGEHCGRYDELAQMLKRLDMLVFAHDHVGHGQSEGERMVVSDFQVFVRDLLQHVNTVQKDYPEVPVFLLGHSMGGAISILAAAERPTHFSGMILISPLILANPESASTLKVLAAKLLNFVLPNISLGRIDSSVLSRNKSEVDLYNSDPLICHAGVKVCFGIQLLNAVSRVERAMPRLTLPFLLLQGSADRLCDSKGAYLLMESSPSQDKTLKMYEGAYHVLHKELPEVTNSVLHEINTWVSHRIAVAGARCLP
Procedure: All compound solutions were made to a concentration of 10 mM in DMSO. Three tests were performed on each compound: hydrolysis, to determine the stability of the compound in assay conditions without the enzyme present; metabolism, to determine the stability of the compound with the enzyme present; and inhibition of 2-Arachidonoyl glycerol (native substrate) metabolism to arachidonic acid.
The inhibition of 2-AG metabolism was measured by mixing 30 nmoles of the compound with 30 nmoles 2-AG, and 30 μg enzyme preparation in TME buffer (final volume of 300 μL). Again the reaction mixture was treated in the same manner as described above and the concentrations of 2-AG and AA were calculated using external standards. Percent inhibition was calculated using the following equation: % Inhib.=(AA20-AA0)i/(AA20-AA0)s where (AA20-AA0)i is the amount of arachidonic acid formed over 20 minutes from 2-AG with the inhibitor present and (AA20-AA0)s is the amount of arachidonic acid formed over 20 minutes from 2-AG when the inhibitor is not present. […] The reaction mixtures were treated as described above and the amount of AA formed was calculated. The software package GraphPad Prism was utilized to calculate IC50 and Ki. HPLC Conditions:
Chromatographic separation was achieved using an Ultrasphere ODS Pre-column (4.6×45 mm) from Beckman. Hardware consisted of a Waters Millennium HPLC system with a 20 μL injection loop. The mobile phase consisted of 8.5% o-phosphoric acid:acetonitrile (3:7), run isocratically at a rate of 1 mL/min and detection at 204 nm. The total run time was 8 minutes with 2-AG eluting at 3.0 minutes and AA at 6.0 minutes.

anandamide transporter = test: [3H]Anandamide transporter competition assay; assay type: cell-based; conditions: human CCF-STG1 astrocytoma cells, 10 nM [3H]anandamide
Procedure: Human CCF-STG1 astrocytoma cells (American Type Culture collection) were grown in RPMI1640 culture medium containing 2 mM L-glutamine, 4.5 g/L glucose, 10 mM HEPES, and 1.0 mM sodium pyruvate, 10% FBS, cultures at 37° C. with 5% CO2. For standard competition assays, confluent cells grown in 24-well plates were rinsed and preincubated for 10 min at 37° C. in assay buffer (Hank's Balanced Salt Solution containing 0.1% DMSO, 10 mM HEPES) plus test compounds (at their final concentrations of 0.01-100 μM). After having discarded the preincubation media, the cells were incubated for 4 min in 0.2 ml assay buffer containing 10 nM [^3H] anandamide (137.6 Ci/mmol, New England Nuclear) plus test compounds. Reactions were stopped by removing the incubation media and rinsing the cells three times with 0.5 ml of ice-cold HBSS buffer containing 0.1% fatty acid-free Bovine Serum Albumin (sigma). Radioactive material in Triton X-100 cell extracts was measured by liquid scintillation counting. A minimum of three independent experiments conducted in six replicates was used to define the concentration needed to produce half-maximal inhibition (IC50) for each compound. IC50 values were obtained by nonlinear regression fitting of the data, using the PRIZM software package. Data are expressed as mean±SEM.

Structure (SMILES)	inhibition at 100 µM (Mag-lipase)	IC50 (anandamide transporter; read-out: IC50 AT inhibition)	IC50 (anandamide transporter; read-out: IC50 (AT inhib.))	Mag-Lipase % Inhibition (Mag-lipase)
O=C(CCC/C=C\C/C=C\C/C=C\C/C=C\CCCCc1ccccc1)NCC1CC1 [Compound A1]	20.5%			
O=C(CCC/C=C\C/C=C\C/C=C\C/C=C\CCc1ccccc1)NCC1CC1 [Compound A2]	37.5%			
O=C(CCC/C=C\C/C=C\C/C=C\C/C=C\CCc1ccccc1)Nc1ccc(O)cc1 [Compound A3]	16.7%	9.1 µM		
O=C(CCC/C=C\C/C=C\C/C=C\C/C=C\CCc1ccccc1)Nc1nccs1 [Compound A4]	9.2%			
[N-]=[N+]=NCCCC/C=C\C/C=C\C/C=C\C/C=C\CCCC(=O)NCC1CC1 [Compound A6]	20.7%			
COc1cc(CNC(=O)CCC/C=C\C/C=C\C/C=C\C/C=C\CCCCN=[N+]=[N-])ccc1O [Compound A7]	13.7%			
O=C(CCC/C=C\C/C=C\C/C=C\C/C=C\CCCCCBr)NC1CC1 [Compound A18]	22.5%	6.7 µM		
CCCCCC=CCC=CCC=CCC=CCCCCOC(=O)NCC(C)O (centres unmarked) [Compound B3]			1.5 µM	14.3%
CCCCC/C=C\C/C=C\C/C=C\C/C=C\CCCCNC(=O)NC[C@H](C)O [Compound B12]	11.1%		1.78 µM	
CCCCC/C=C\C/C=C\CCCCCCCCOC(=O)NC[C@H](C)O [Compound B14]			7.21 µM	25.8%
CC/C=C\C/C=C\C/C=C\CCCCCCCCOC(=O)NC[C@H](C)O [Compound B15]			4.5 µM	24.6%
